Measurements: US9962395B2, “Compositions and methods for maintaining cognitive function” (The Regents of the University of California, priority 2014, dated 2018)
“Also recorded” adds a separate entry of the source.

Key:
Assay type in all cases: in vivo
[1] = tested on: hippocampal CA1 of ovariectomized (OVX) mice; test: Hippocampal slice electrophysiology: long term potentiation (LTP) in CA1 after high-frequency stimulation
Experimental: FIGS. 1A and 1B. Estriol partially recovers long term potentiation (LTP) in the hippocampal CA1 of ovariectomized (OVX) mice. (A) LTP induced by 2×100 Hz HFS in sham-placebo treated mice (open squares, n=4) is reduced in OVX-placebo treated mice (gray circles, n=4). Estriol-treated OVX mice show improved synaptic strength (black circles, n=4). Representative traces are superimposed average fEPSPs recorded at baseline and during final 15 minutes after HFS. Estriol (5 mg) or placebo was administered as subcutaneous pellets. Calibration: 2 mV, 5 ms. (B) Summary showing fEPSP slopes during baseline (Pre) and in final 15 minutes after HFS (Post). […] Statistics RM-ANOVA, Tukey's multiple comparison test, ****p≤0.0001.
Electrophysiology to assess excitatory synaptic transmission is an accepted biomarker for cognitive function in mice, which specifically tests long term potentiation (LTP) during stimulation of the region of the brain responsible for memory, the CA1 region of the hippocampus. Hippocampal electrophysiology was examined in slices from sham surgical mice treated with placebo (SP), ovariectomized mice treated with placebo (OP), and ovariectomized mice treated with estriol (OE). […] LTP was reduced in OP mice as compared to SP mice, consistent with the known deleterious effects upon loss of peripheral estrogen on neurotransmission (FIG. 1).

PSD-95 = PSD-95 synaptic protein expression in dorsal hippocampus (western blot, immunofluorescence); details: OVX mice treated with estriol, n=2
Source text: FIG. 4 consists of two panels, labeled panels (A) and (B). Estriol partially recovers synaptic levels of PSD-95 in the dorsal hippocampus following OVX. Panel A: levels of PSD-95 are decreased in the dorsal hippocampus in OVX-Placebo mice (n=2) compared to Sham-Placebo mice (n=2). […] Scale bar=20 μm, 40× objective.
Expression of PSD-95 in the CA1 stratum radiatum was shown by both immunofluorescence and by western blot (FIG. 4)

[2] = tested on: ovariectomized female C57BL/6 mice; test: Morris water maze (spatial memory) in ovariectomized mice
Experimental: (§1) FIG. 5. Peripheral estrogens improve performance on the Morris water maze via ERP expressed on neurons. Healthy female C57BL/6 were tested for cognitive performance (spatial memory) using the Morris water maze, whereby mice learn to spend more time in a target quadrant (TQ) as compared to three other quadrants (OQ). […] (Bottom graph) To determine (a) whether ER beta is required for proper learning and, more specifically, (b) whether ER beta expression in neurons is required for learning, mice were generated that had ER beta conditionally knocked out using CreLox technology, with Cre driving the knock out in neurons via the neuron-specific enolase (NSE) promoter. […] (***p≤0.001, ANOVA-Sidak's posttest). […] The dashed line on the graphs indicates the time expected to be spent in a quadrant by random chance in the absence of learning (25%).
Ovariectomized mice (OVX-Placebo) display worse performance in the Morris water maze than control mice (Sham-Placebo) (FIG. 5, top panel). The administration of an estriol improves performance in ovariectomized mice (OVX-Estriol) (FIG. 5, top panel).

NSE-Cre:ERβ^fl/fl mice = test: Morris water maze in mice with neuronal conditional knockout of ER beta; details: OVX estriol-treated NSE-Cre:ERβ^fl/fl mice, n=7
Experimental: as §1
Thus, estrogen receptor β ligands can likely protect against neuronal defects and disability during neurodegenerative processes. This is consistent with the observation that estriol improved performance since it is a known that estriol is an agonist for various estrogen receptors including estrogen receptor β.

[3] = tested on: post-menopausal female patients; test: Randomized, double-blind, placebo-controlled human clinical trial of estriol and norethindrone in menopause; details: oral estriol 2, 4, 6 or 8 mg/day, 36-month treatment, women
Experimental: This example describes a randomized, double-blind, placebo-controlled human clinical trial for the treatment of menopause estriol and norethindrone.
Women who are taking hormone replacement therapy are excluded from the trial.
Patients are randomized to oral estriol (2 mg/day, 4 mg/day, 6 mg/day, or 8 mg/day) or to placebo for a 36-month treatment duration. Gynecologists examine the patients before, during, and after the study. Each patient is examined at three- to six-month intervals during the trial. Patients also undergo mammograms before and after the study. In addition, at baseline, 3 months, 6 months, 12 months, 18 months, 24, months, 30 months, and 36 months, the investigators measure participants' estriol levels, and assess cognitive abilities.
A total of 100 patients receive estriol, and 100 patients receive placebo. Baseline characteristics are similar in both patient groups. Participants' mean age at entry is approximately 52 years. […] To ensure breast and uterus safety, every three months the patients take norethindrone 0.7 mg once a day for 14 days.

C[C@]12CC[C@@H]3c4ccc(O)cc4CC[C@H]3[C@@H]1C[C@@H](O)[C@@H]2O [estriol]
LTP versus OVX-placebo mice (in words) ([1]; OVX mice treated with estriol for 9 weeks, RM-ANOVA, Tukey, p≤0.0001): significantly improved over OP mice; also recorded: significant improvement in LTP deficit from ovariectomy
fEPSP slope in final 15 minutes after HFS (Post), Mean±SE post-HFS ([1]; OVX mice, estriol 5 mg subcutaneous pellet, 2×100 Hz HFS, n=4, sham-placebo 159.6±0.2, OVX-placebo 141.6±0.5): 150.4±0.4
PSD-95 levels in dorsal hippocampus / CA1 stratum radiatum versus OVX-placebo (PSD-95): increased expression of PSD-95; also recorded: elevated PSD-95 levels
% duration in target quadrant (TQ) versus other quadrants (OQ), learning ([2]; OVX mice, 20 days of 5 mg, 90 day release estriol implants, n=7, p≤0.01): significant preference for the TQ over OQ; also recorded: ability to learn may be restored
average latency to platform during acquisition training ([2]; Sham-Placebo vs OVX-Placebo vs OVX-Estriol, 3 trials/mouse/day, RM-ANOVA p>0.05): no difference was observed
% duration in TQ versus OQ, estriol rescue of learning in ER beta neuronal knockout (NSE-Cre:ERβ^fl/fl mice): estrogen-mediated improvement is lost; also recorded: the ability of estriol to rescue learning is mediated by ER beta expression in neurons
Estriol levels in serum [3]: in early pregnancy range
